Data reported in EP4755888A1 (ILAb Co., Ltd., priority 2023, dated 2025).

Molecular target: PD-1/PD-L1 (Homo sapiens, UniProt Q9NZQ7)
Experiment: TR-FRET PD-1/PD-L1 binding inhibition at the molecular level (free proteins)
Conditions: Tag1-PD-L1 and Tag2-PD-1 proteins, twelve concentrations from 200 nM, 2 hours at room temperature, read-out: FRET assay (IC50)
Procedure, shortened: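 HTRF read-out at 665/620 nm after 2 h at room temperature. Detection used anti-Tag1 Eu cryptate plus anti-Tag2 XL665 antibodies. Tagged PD-L1 and PD-1 proteins were pre-mixed with compound across twelve […] 1:2 dilutions starting at 200 nM.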

Sequence of PD-1/PD-L1 (Q9NZQ7 19-238 limits assumed): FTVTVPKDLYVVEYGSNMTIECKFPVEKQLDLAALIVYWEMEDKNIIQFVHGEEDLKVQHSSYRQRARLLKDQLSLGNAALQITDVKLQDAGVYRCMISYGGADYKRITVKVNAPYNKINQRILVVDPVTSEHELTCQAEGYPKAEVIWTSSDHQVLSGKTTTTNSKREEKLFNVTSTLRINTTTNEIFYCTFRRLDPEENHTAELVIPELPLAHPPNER

`Cn1c(C(=O)Nc2cccc(-c3cccc(NC(=O)c4cc5n(n4)CCC[C@@H]5N4CC[C@@H](C(=O)O)C4)c3Cl)c2Cl)nc2c1CCN(CCC13CCC(C(=O)O)(CC1)C3)C2` [Compound 307, (R)-1-((S)-2-((3'-(5-(2-(4-carboxybicyclo[2.2.1]heptan-1-yl)ethyl)-1-methyl-4,5,6,7-tetrahydro-1H-imidazo[4,5-c]pyridine-2-carboxamido)-2,2'-dichloro-[1,1'-biphenyl]-3-yl)carbamoyl)-4,5,6,7-tetrahydropyrazolo[1,5-a]pyridin-4-yl)pyrrolidine-3-carboxylic acid] and `Cn1c(C(=O)Nc2cccc(-c3cccc(NC(=O)c4cc5n(n4)CCC[C@H]5N4CC[C@@H](C(=O)O)C4)c3Cl)c2Cl)nc2c1CCN(CCC13CCC(C(=O)O)(CC1)C3)C2` [Compound 308, (R)-1-((R)-2-((3'-(5-(2-(4-carboxybicyclo[2.2.1]heptan-1-yl)ethyl)-1-methyl-4,5,6,7-tetrahydro-1H-imidazo[4,5-c]pyridine-2-carboxamido)-2,2'-dichloro-[1,1'-biphenyl]-3-yl)carbamoyl)-4,5,6,7-tetrahydropyrazolo[1,5-a]pyridin-4-yl)pyrrolidine-3-carboxylic acid] cannot be ordered by IC50: < 10 nM for the first, < 10 nM for the second.

Compared with `Cc1c(NC(=O)c2ccc(CN3CC[C@@H](O)C3)cn2)cccc1-c1cccc(NC(=O)c2cc3n(n2)CCC[C@@H]3N2CCCC[C@@H]2CO)c1C` [Compound 309, (S)-4-((R)-2-(hydroxymethyl)piperidin-1-yl)-N-(3'-(5-(((R)-3-hydroxypyrrolidin-1-yl)methyl)picolinamido)-2,2'-dimethyl-[1,1'-biphenyl]-3-yl)-4,5,6,7-tetrahydropyrazolo[1,5-a]pyridine-2-carboxamide], `Cc1c(NC(=O)c2ccc(CN3CC[C@@H](O)C3)cn2)cccc1-c1cccc(NC(=O)c2cc3n(n2)CCC[C@H]3N2CCCC[C@@H]2CO)c1C` [Compound 309-1, (R)-4-((R)-2-(hydroxymethyl)piperidin-1-yl)-N-(3'-(5-(((R)-3-hydroxypyrrolidin-1-yl)methyl)picolinamido)-2,2'-dimethyl-[1,1'-biphenyl]-3-yl)-4,5,6,7-tetrahydropyrazolo[1,5-a]pyridine-2-carboxamide] is higher in IC50: < 10 nM for the first, 10 to 100 nM for the second.

`Cc1c(NC(=O)c2ccc(CN3CC[C@@H](O)C3)cn2)cccc1-c1cccc(NC(=O)c2cc3n(n2)CCC[C@@H]3N2CCC[C@@H]2CO)c1C` [Compound 310, (S)-4-((R)-2-(hydroxymethyl)pyrrolidin-1-yl)-N-(3'-(5-(((R)-3-hydroxypyrrolidin-1-yl)methyl)picolinamido)-2,2'-dimethyl-[1,1'-biphenyl]-3-yl)-4,5,6,7-tetrahydropyrazolo[1,5-a]pyridine-2-carboxamide] and `Cc1c(NC(=O)c2ccc(CN3CC[C@@H](O)C3)cn2)cccc1-c1cccc(NC(=O)c2cc3n(n2)CCC[C@H]3N2CCC[C@@H]2CO)c1C` [Compound 310-1] cannot be ordered by IC50: < 10 nM for the first, < 10 nM for the second.

`CN(C)[C@H]1CCCn2nc(C(=O)Nc3cccc(-c4cccc(NC(=O)c5cc6n(n5)CCC[C@@H]6N(C)C)c4Cl)c3Cl)cc21` [Compound 311, (4S,4'S)-N,N'-(2,2'-dichloro-[1,1'-biphenyl]-3,3'-diyl)bis(4-(dimethylamino)-4,5,6,7-tetrahydropyrazolo[1,5-a]pyridine-2-carboxamide)] and `CN(C)[C@H]1CCCn2nc(C(=O)Nc3cccc(-c4cccc(NC(=O)c5cc6n(n5)CCC[C@@H]6NCCO)c4Cl)c3Cl)cc21` [Compound 313, (S)-N-(2,2'-dichloro-3'-((S)-4-((2-hydroxyethyl)amino)-4,5,6,7-tetrahydropyrazolo[1,5-a]pyridine-2-carboxamido)-[1,1'-biphenyl]-3-yl)-4-(dimethylamino)-4,5,6,7-tetrahydropyrazolo[1,5-a]pyridine-2-carboxamide] cannot be ordered by IC50: < 10 nM for the first, < 10 nM for the second.

`CN[C@H]1CCCn2nc(C(=O)Nc3cccc(-c4cccc(NC(=O)c5cc6n(n5)CCC[C@@H]6NC)c4C)c3C)cc21` [Compound 312, (4S,4'S)-N,N'-(2,2'-dimethyl-[1,1'-biphenyl]-3,3'-diyl)bis(4-(methylamino)-4,5,6,7-tetrahydropyrazolo[1,5-a]pyridine-2-carboxamide)] and `O=C(O)CN[C@H]1CCCn2nc(C(=O)Nc3cccc(-c4cccc(NC(=O)c5cc6n(n5)CCC[C@@H]6NCC(=O)O)c4Cl)c3Cl)cc21` [Compound 317, 2,2'-(((4S,4'S)-2,2'-(((2,2'-dichloro-[1,1'-biphenyl]-3,3'-diyl)bis(azanediyl))bis(carbonyl))bis(4,5,6,7-tetrahydropyrazolo[1,5-a]pyridine-4,2-diyl))bis(azanediyl))diacetic acid] cannot be ordered by IC50: < 10 nM for the first, < 10 nM for the second.

`CN(C)[C@H]1CCCn2nc(C(=O)Nc3cccc(-c4cccc(NC(=O)c5cc6n(n5)CCC[C@@H]6NCC(=O)O)c4Cl)c3Cl)cc21` [Compound 314, 2-(((S)-2-((2,2'-dichloro-3'-((S)-4-(dimethylamino)-4,5,6,7-tetrahydropyrazolo[1,5-a]pyridine-2-carboxamido)-[1,1'-biphenyl]-3-yl)carbamoyl)-4,5,6,7-tetrahydropyrazolo[1,5-a]pyridin-4-yl)amino)acetic acid] and `O=C(O)CN[C@H]1CCCn2nc(C(=O)Nc3cccc(-c4cccc(NC(=O)c5cc6n(n5)CCC[C@@H]6NCCO)c4Cl)c3Cl)cc21` [Compound 315, 2-(((S)-2-((2,2'-dichloro-3'-((S)-4-((2-hydroxyethyl)amino)-4,5,6,7-tetrahydropyrazolo[1,5-a]pyridine-2-carboxamido)-[1,1'-biphenyl]-3-yl)carbamoyl)-4,5,6,7-tetrahydropyrazolo[1,5-a]pyridin-4-yl)amino)acetic acid] cannot be ordered by IC50: < 10 nM for the first, < 10 nM for the second.

Compared with `O=C(Nc1cccc(-c2cccc(NC(=O)c3cc4n(n3)CCC[C@@H]4NCCO)c2Cl)c1Cl)c1cc2n(n1)CCC[C@@H]2NCCO` [Compound 316, (4S,4'S)-N,N'-(2,2'-dichloro-[1,1'-biphenyl]-3,3'-diyl)bis(4-((2-hydroxyethyl)amino)-4,5,6,7-tetrahydropyrazolo[1,5-a]pyridine-2-carboxamide)], `O=C(Nc1cccc(-c2cccc(Nc3nccc4cc(CN5CC[C@@H](O)C5)cnc34)c2Cl)c1Cl)c1cc2n(n1)CCCN2CCO` [Compound 322, (R)-N-(2,2'-dichloro-3'-((3-((3-hydroxypyrrolidin-1-yl)methyl)-1,7-naphthyridin-8-yl)amino)-[1,1'-biphenyl]-3-yl)-4-(2-hydroxyethyl)-4,5,6,7-tetrahydropyrazolo[1,5-a]pyrimidine-2-carboxamide] is higher in IC50: < 10 nM for the first, 10 to 100 nM for the second.

Compared with `O=C(Nc1cccc(-c2cccc(Nc3nccc4cc(CN5CC[C@@H](O)C5)cnc34)c2Cl)c1Cl)c1cc2n(n1)CCN(CCO)C2` [Compound 323, (R)-N-(2,2'-dichloro-3'-((3-((3-hydroxypyrrolidin-1-yl)methyl)-1,7-naphthyridin-8-yl)amino)-[1,1-biphenyl]-3-yl)-5-(2-hydroxyethyl)-4,5,6,7-tetrahydropyrazolo[1,5-a]pyrazine-2-carboxamide], `O=C(O)CN1CCn2nc(C(=O)Nc3cccc(-c4cccc(Nc5nccc6cc(CN7CC[C@@H](O)C7)cnc56)c4Cl)c3Cl)cc2C1` [Compound 324, (R)-2-(2-((2,2'-dichloro-3'-((3-((3-hydroxypyrrolidin-1-yl)methyl)-1,7-naphthyridin-8-yl)amino)-[1,1'-biphenyl]-3-yl)carbamoyl)-6,7-dihydropyrazolo[1,5-a]pyrazin-5(4H)-yl)acetic acid] is lower in IC50: 10 to 100 nM for the first, < 10 nM for the second.

`Cc1c(NC(=O)c2ccc(CN3CC[C@@H](O)C3)cn2)cccc1-c1cccc(NC(=O)c2cc3n(n2)CCN(CCO)C3)c1C` [Compound 325, (R)-5-(2-hydroxyethyl)-N-(3'-(5-((3-hydroxypyrrolidin-1-yl)methyl)picolinamido)-2,2'-dimethyl-[1,1'-biphenyl]-3-yl)-4,5,6,7-tetrahydropyrazolo[1,5-a]pyrazine-2-carboxamide] and `Cc1c(NC(=O)c2ccc(CN3CC[C@@H](O)C3)cn2)cccc1-c1cccc(NC(=O)c2cc3n(n2)CCN(CC(=O)O)C3)c1C` [Compound 326, (R)-2-(2-((3'-(5-((3-hydroxypyrrolidin-1-yl)methyl)picolinamido)-2,2'-dimethyl-[1,1'-biphenyl]-3-yl)carbamoyl)-6,7-dihydropyrazolo[1,5-a]pyrazin-5(4H)-yl)acetic acid] cannot be ordered by IC50: < 10 nM for the first, < 10 nM for the second.

`Cc1c(NC(=O)c2cc3n(n2)CCN(CCO)C3)cccc1-c1cccc(Nc2nc(C(F)F)nc3cc(CN4CC[C@@H](O)C4)cnc23)c1C` [Compound 327, (R)-N-(3'-((2-(difluoromethyl)-7-((3-hydroxypyrrolidin-1-yl)methyl)pyrido[3,2-d]pyrimidin-4-yl)amino)-2,2'-dimethyl-[1,1'-biphenyl]-3-yl)-5-(2-hydroxyethyl)-4,5,6,7-tetrahydropyrazolo[1,5-a]pyrazine-2-carboxamide] and `Cc1c(NC(=O)c2cc3n(n2)CCN(CC(=O)O)C3)cccc1-c1cccc(Nc2nc(C(F)F)nc3cc(CN4CC[C@@H](O)C4)cnc23)c1C` [Compound 328, (R)-2-(2-((3'-((2-(difluoromethyl)-7-((3-hydroxypyrrolidin-1-yl)methyl)pyrido[3,2-d]pyrimidin-4-yl)amino)-2,2'-dimethyl-[1,1'-biphenyl]-3-yl)carbamoyl)-6,7-dihydropyrazolo[1,5-a]pyrazin-5(4H)-yl)acetic acid] cannot be ordered by IC50: < 10 nM for the first, < 10 nM for the second.

For `O=C(Nc1cccc(-c2cccc(Nc3nc(C(F)(F)F)nc4cccnc34)c2Cl)c1Cl)c1cc2n(n1)CCC[C@@H]2N1CC[C@@H](O)C1` [Compound 333, (S)-N-(2,2'-dichloro-3'-((2-(trifluoromethyl)pyrido[3,2-d]pyrimidin-4-yl)amino)-[1,1'-biphenyl]-3-yl)-4-((R)-3-hydroxypyrrolidin-1-yl)-4,5,6,7-tetrahydropyrazolo[1,5-a]pyridine-2-carboxamide], the IC50 was 10 to 100 nM.
